Assay results taken from ChEMBL document CHEMBL3885881, “DrugMatrix”.

Species: Rattus norvegicus
Assay: DrugMatrix - Regimen: Daily Repeat
Format: toxicity, organism-based, Sprague-Dawley
Set-up: regimen Daily Repeat, gender Male, age 6-8 weeks
Settings: in vivo, ip, route intraperitoneal, vehicle 100 % SALINE; for URIC ACID / ALANINE AMINOTRANSFERASE / ALBUMIN / ALKALINE PHOSPHATASE / ASPARTATE AMINOTRANSFERASE / BLOOD UREA NITROGEN / CHLORIDE / CHOLESTEROL / CREATINE PHOSPHOKINASE / CREATININE / GLUCOSE / LACTATE DEHYDROGENASE / LIPASE / PHOSPHORUS / POTASSIUM / SODIUM / TOTAL BILIRUBIN / TOTAL PROTEIN: tissue Plasma
[1] = 5 mg/kg, 120 h, tissue Blood, dose level High, time 5 day
[2] = 5 mg/kg, 120 h, dose level High, time 5 day
[3] = 5 mg/kg, […], tissue Blood, dose level High, time 14 day
[4] = 5 mg/kg, […], tissue Blood, dose level High, time 28 day
[5] = 5 mg/kg, […], dose level High, time 14 day
[6] = 5 mg/kg, […], dose level High, time 28 day

## CARBOPLATIN
0 mg/kg, […], dose level Control, time 28 day
  URIC ACID: 1.26 mg/dL
[1]
  ABSOLUTE BASOPHIL: 26 cells/µL
  ABSOLUTE EOSINOPHIL: 44 cells/µL
  ABSOLUTE LYMPHOCYTE: 5500 cells/µL
  ABSOLUTE MONOCYTE: 120 cells/µL
  ABSOLUTE SEGMENTED NEUTROPHIL: 520 cells/µL
  BASOPHIL: 0.4%
  EOSINOPHIL: 0.72%
  ERYTHROCYTE COUNT: 7.51 x10E6/uL
  HEMATOCRIT: 46.82%
  LEUKOCYTE COUNT: 6.24 x10E3/uL
  LYMPHOCYTE: 88.18%
  MEAN CORPUSCULAR HEMOGLOBIN: 20.08 pg
  MEAN CORPUSCULAR HEMOGLOBIN CONCENTRATION: 32.18 G/DL
  MONOCYTE: 2.02%
  NEUTROPHIL: 8.22%
  PLATELET COUNT: 1572.2 x10E3/uL
[2]
  ALANINE AMINOTRANSFERASE: 21.4 u/L
  ALBUMIN: 3.62 G/DL
  ALKALINE PHOSPHATASE: 214.8 u/L
  ASPARTATE AMINOTRANSFERASE: 70.6 u/L
  BLOOD UREA NITROGEN: 14.6 mg/dL
  CHLORIDE: 107.4 MEQ/L
  CHOLESTEROL: 59.4 mg/dL
  CREATINE PHOSPHOKINASE: 192.6 u/L
  CREATININE: 0.54 mg/dL
  GLUCOSE: 139.6 mg/dL
  LACTATE DEHYDROGENASE: 65 u/L
  LIPASE: 27.2 u/L
  PHOSPHORUS: 11.28 mg/dL
  POTASSIUM: 5.36 MEQ/L
  SODIUM: 146.8 MEQ/L
  TOTAL BILIRUBIN: 0.18 mg/dL
  TOTAL PROTEIN: 6.16 G/DL
  URIC ACID: 1.16 mg/dL
[3]
  ABSOLUTE BASOPHIL: 130 cells/µL
  ABSOLUTE EOSINOPHIL: 88 cells/µL
  ABSOLUTE LYMPHOCYTE: 8780 cells/µL
  ABSOLUTE MONOCYTE: 260 cells/µL
  ABSOLUTE SEGMENTED NEUTROPHIL: 1370 cells/µL
  BASOPHIL: 1.28%
  EOSINOPHIL: 0.82%
  ERYTHROCYTE COUNT: 7.59 x10E6/uL
  HEMATOCRIT: 44.92%
  LEUKOCYTE COUNT: 10.68 x10E3/uL
  LYMPHOCYTE: 81.92%
  MEAN CORPUSCULAR HEMOGLOBIN: 19.52 pg
  MEAN CORPUSCULAR HEMOGLOBIN CONCENTRATION: 32.96 G/DL
  MONOCYTE: 2.38%
  NEUTROPHIL: 13.02%
  PLATELET COUNT: 1274 x10E3/uL
[4]
  ABSOLUTE BASOPHIL: 170 cells/µL
  ABSOLUTE EOSINOPHIL: 89 cells/µL
  ABSOLUTE LYMPHOCYTE: 9490 cells/µL
  ABSOLUTE MONOCYTE: 290 cells/µL
  ABSOLUTE SEGMENTED NEUTROPHIL: 1640 cells/µL
  BASOPHIL: 1.3%
  EOSINOPHIL: 0.78%
  ERYTHROCYTE COUNT: 8.56 x10E6/uL
  HEMATOCRIT: 50.05%
  LEUKOCYTE COUNT: 11.75 x10E3/uL
  LYMPHOCYTE: 81.13%
  MEAN CORPUSCULAR HEMOGLOBIN: 19.05 pg
  MEAN CORPUSCULAR HEMOGLOBIN CONCENTRATION: 32.58 G/DL
  MEAN CORPUSCULAR VOLUME: 58.46 fL
  MONOCYTE: 2.43%
  NEUTROPHIL: 13.81%
  PLATELET COUNT: 1331.9 x10E3/uL
[5]
  ALANINE AMINOTRANSFERASE: 30.2 u/L
  ALBUMIN: 3.48 G/DL
  ALKALINE PHOSPHATASE: 147.2 u/L
  ASPARTATE AMINOTRANSFERASE: 92.8 u/L
  BLOOD UREA NITROGEN: 12.2 mg/dL
  CHOLESTEROL: 54 mg/dL
  CREATINE PHOSPHOKINASE: 251.2 u/L
  CREATININE: 0.46 mg/dL
  GLUCOSE: 105.2 mg/dL
  LACTATE DEHYDROGENASE: 123.4 u/L
  LIPASE: 31.2 u/L
  PHOSPHORUS: 8.36 mg/dL
  POTASSIUM: 5.68 MEQ/L
  SODIUM: 149.4 MEQ/L
  TOTAL BILIRUBIN: 0.22 mg/dL
  TOTAL PROTEIN: 6.24 G/DL
  URIC ACID: 0.6 mg/dL
[6]
  ALANINE AMINOTRANSFERASE: 36.4 u/L
  ALBUMIN: 3.74 G/DL
  ALKALINE PHOSPHATASE: 135 u/L
  ASPARTATE AMINOTRANSFERASE: 95.6 u/L
  BLOOD UREA NITROGEN: 13.2 mg/dL
  CHLORIDE: 106.6 MEQ/L
  CHOLESTEROL: 55.8 mg/dL
  CREATINE PHOSPHOKINASE: 186.2 u/L
  CREATININE: 0.51 mg/dL
  GLUCOSE: 115.1 mg/dL
  LACTATE DEHYDROGENASE: 98.7 u/L
  LIPASE: 8.62 u/L
  PHOSPHORUS: 9.03 mg/dL
  POTASSIUM: 6.36 MEQ/L
  SODIUM: 150.9 MEQ/L
  TOTAL BILIRUBIN: 0.22 mg/dL
